{"source": "ChEMBL document CHEMBL6153028", "about": "“Understanding the synergistic sensitization of natural products and antibiotics: An effective strategy to combat MRSA” (2025)", "format_in_all_cases": "functional", "key": {"Staphylococcus aureus [1]": {"system": "Staphylococcus aureus", "assay": "Synergistic antimicrobial activity against methicillin-resistant Staphylococcus aureus assessed as fractional inhibitory concentration index in presence of amoxicillin"}, "Staphylococcus aureus [2]": {"system": "Staphylococcus aureus", "assay": "Synergistic antibacterial activity against methicillin-resistant Staphylococcus aureus assessed as fractional inhibitory concentration index in presence of cefoxitin"}, "Staphylococcus aureus [3]": {"system": "Staphylococcus aureus", "assay": "Antibacterial activity against methicillin-resistant Staphylococcus aureus ATCC 33592 assessed as reduction in bacterial growth measured for 24 hrs by CLSI protocol based two-fold serial dilution method"}, "Staphylococcus aureus [4]": {"system": "Staphylococcus aureus", "assay": "Synergistic antibacterial activity against methicillin-resistant Staphylococcus aureus assessed as fractional inhibitory concentration index incubated for 24 hrs in presence of Nafcillin by checkerboard assay"}, "Staphylococcus aureus [5]": {"system": "Staphylococcus aureus", "assay": "Synergistic antibacterial activity against methicillin-resistant Staphylococcus aureus assessed as fractional inhibitory concentration index incubated for 24 hrs in presence of cefazolin by checkerboard assay"}, "Staphylococcus aureus [6]": {"system": "Staphylococcus aureus", "assay": "Synergistic antimicrobial activity against methicillin resistant Staphylococcus aureus assessed as fractional inhibitory concentration index incubated for 24 hrs in presence of Oxacillin by checkerboard assay"}}}
{"smiles": "CC1(C)CCC2=C(O1)c1ccccc1C(=O)C2=O", "note": "[LAPACHONE]", "values": [{"measurement": "fractional inhibitory concentration index (FICI)", "setting": "Staphylococcus aureus [1]", "result": 0.07}, {"measurement": "fractional inhibitory concentration index (FICI)", "setting": "Staphylococcus aureus [2]", "result": 0.25}]}
{"smiles": "Oc1cc(O)c2c(c1)O[C@H](c1ccc(O)c(O)c1)[C@@H](O)C2", "note": "[CIANIDANOL]", "values": [{"measurement": "MIC", "setting": "Staphylococcus aureus [3]", "result": "> 1020", "unit": "µg/mL"}]}
{"smiles": "Cc1cc(O)c2c(=O)c3c(O)cc(O)c4c5c(O)cc(O)c6c(=O)c7c(O)cc(C)c8c1c2c(c34)c(c78)c65", "note": "[HYPERICIN]", "values": [{"measurement": "fractional inhibitory concentration index (FICI)", "setting": "Staphylococcus aureus [4]", "result": 0.19}, {"measurement": "fractional inhibitory concentration index (FICI)", "setting": "Staphylococcus aureus [5]", "result": 0.19}, {"measurement": "fractional inhibitory concentration index (FICI)", "setting": "Staphylococcus aureus [6]", "result": 0.1}]}
